This is an account of results in US6933305B2, “Amide compounds and use thereof” (Mitsubishi Pharma Corporation, priority 2000, dated 2005).

The target of data set [1] is T1, human ROCK-1 kinase domain (1 to 477 amino acids) (Homo sapiens, UniProt Q13464).
T1 construct: a vector that expresses the kinase domain (1 to 477 amino acids) of the ROCK-1 protein; His-Tag (6xHis); made in house; host or cells: Sf9 insect cells, recombinant baculovirus (pBAC-1 vector)
The data set is described as follows: Rho kinase inhibitory activity (inhibitory activity on human Rho kinase). The data set is classed as biochemical. The following applies: recombinant His-tagged human ROCK-1 kinase domain, histone substrate, 1 μM [32P]ATP, room temperature 20 min. Here is the method:
Rho Kinase Inhibitory Activity (Inhibitory Activity on Human Rho Kinase)
Human Rho kinase was prepared as follows. Using the following primer prepared based on the human ROCK-1 cDNA sequence reported by Ishizaki et al. (T. Ishizaki et al. EMBO J. 15, 1885-1893, 1996) and Human Placenta cDNA (Clontech, Lot. 7030086) as a template, PCR amplification was carried out.
The amplified DNA fragment was digested with Sac I and Not I, and inserted into the Sac I/Not I site of a commercially available vector for insect cell expression, pBAC-1 (Novagenn), whereby a […] human ROCK-1 protein expression vector was prepared. […]
A reaction mixture (total amount 100 μl) containing 20 mM (N-morpholino)propanesulfone acid-NaOH (pH 7.2), 0.1 mg/ml bovine serum albumin, 5 mM dithiothreitol, 10 mM β-glycerophosphoric acid, 50 μM sodium vanadate, 10 mM magnesium chloride, 1 μM [^32P] […] Then, the radioactivity incorporated into the substrate was measured using a liquid scintillation counter. […]

The IC50 is the midpoint of a concentration-inhibition curve. Broadly, the melting point is the temperature of the solid-liquid transition.

Each structure is given as a SMILES string. Counter-ions that a name gives are not always drawn.

T1 sequence (Q13464 1-477): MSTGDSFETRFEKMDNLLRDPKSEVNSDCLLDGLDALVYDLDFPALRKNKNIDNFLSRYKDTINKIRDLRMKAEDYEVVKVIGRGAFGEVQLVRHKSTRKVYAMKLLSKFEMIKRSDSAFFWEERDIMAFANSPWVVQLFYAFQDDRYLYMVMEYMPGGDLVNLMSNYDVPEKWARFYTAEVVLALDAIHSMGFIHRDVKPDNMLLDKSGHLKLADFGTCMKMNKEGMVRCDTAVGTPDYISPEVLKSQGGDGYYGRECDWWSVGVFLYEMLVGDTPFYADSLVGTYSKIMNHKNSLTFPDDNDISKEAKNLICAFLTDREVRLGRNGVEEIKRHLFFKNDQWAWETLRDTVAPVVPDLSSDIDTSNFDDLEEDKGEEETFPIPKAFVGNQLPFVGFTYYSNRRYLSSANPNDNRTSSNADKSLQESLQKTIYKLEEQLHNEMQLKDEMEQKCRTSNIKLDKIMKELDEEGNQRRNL

Take `N[C@H]1CCSc2cc(C(=O)Nc3ccncc3)ccc21` [Example 10, (S)-4-amino-N-(4-pyridyl)thiochromane-7-carboxamide]: in data set [1], the IC50 stood at 13 nM.

`N[C@@H]1CCS(=O)(=O)c2cc(C(=O)Nc3ccncc3)ccc21` (as salt: HCl) (hydrate or solvate) [Example 6, (R)-4-amino-N-(4-pyridyl)thiochromane-7-carboxamide 1,1-dioxide]: the melting point is > 275 °C (dec.).

Regarding `NC1CCSc2cc(C(=O)Nc3ccncc3)ccc21` (stereo not drawn) (as salt: HCl) [Example 2, 4-amino-N-(4-pyridyl)thiochromane-7-carboxamide], the melting point is > 280 °C (dec.).

As for `N[C@H]1CCSc2cc(C(=O)Nc3ccncc3)ccc21` (as salt: HCl) (hydrate or solvate) [Example 10, (S)-4-amino-N-(4-pyridyl)thiochromane-7-carboxamide], the melting point is > 260 °C (dec.).

Consider `N[C@@H]1CCS(=O)(=O)c2cc(C(=O)Nc3ccncc3)ccc21` (as salt: HCl) (hydrate or solvate) [Example 7, (R)-4-amino-N-(4-pyridyl)thiochromane-7-carboxamide 1,1-dioxide], for which the melting point was > 250 °C (dec.).

With `NC1CCS(=O)(=O)c2cc(C(=O)Nc3ccncc3)ccc21` (stereo not drawn) (as salt: HCl) (hydrate or solvate) [Example 1, 4-amino-N-(4-pyridyl)thiochromane-7-carboxamide 1,1-dioxide], the melting point was > 230 °C (dec.).
